In publication PMC6661766, “Antimicrobial, antioxidant and cytotoxic evaluation of diazenyl chalcones along with insights to mechanism of interaction by molecular docking studies” (BMC Chemistry, 2019):
Values after ≈ are worked out from the molar mass of the structure shown. Like-named read-outs stand apart in the source and are kept apart here.

Key:
[1] = DPPH scavenging antioxidant assay
Procedure: The derivatives (C18–C27) were assessed for their antioxidant potential in the presence of the stable free radical DPPH using ascorbic acid as the standard compound [36, 37]. […] The total volume of 200 µl was used in each well for each concentration of the test and standard drug containing 0.004 µg DPPH. The assay was performed in triplicate at all concentrations of each sample and standard compound. DPPH solutions in methanol at the same concentration without test drugs were used as the control. Each concentration of the sample and standard has a different blank. To minimize evaporation, the plate was covered with the lid and wrapped in aluminium foil and kept in the dark place in order to protect the DPPH radical from degradation by light and left for 30 min. After 30 min of incubation, the plate was kept in ELISA reader to measure the absorbance values at 517 nm. The experiment was performed in triplicate. The antioxidant activity of each sample was then calculated as per cent inhibition of DPPH according to the following equation: %decolourationofDPPH=ControlAbs-SampleAbs×100/ControlAbs

E. coli = experiment: Antimicrobial serial tube dilution, MIC and MBC; assay type: cell-based, Escherichia coli MTCC 1652
Procedure: (§1) The synthesized diazenyl chalcones (C18 to C27) and controls (dyes A and E, and chalcone) were assessed for their antimicrobial activity by estimation of MIC and MBC/MFC values. […] The stock solutions of the test compounds and standard drugs having a concentration of 1000 µg ml^−1 were prepared by dissolving the used compounds in DMSO. The nutrient broth/Sabouraud dextrose broth was used for the serial dilution of the test compounds and referenced drugs for bacterial and fungal cultures, respectively. […] The size of the final inoculum in each test tube was taken as 5 × 10^5 CFU ml^−1. The incubation of the test and standard compounds of varying concentrations was done for 24 h at 37 ± 2 °C (bacterial culture) and for 48 h at 37 ± 2 °C (C. albicans) and for 7 d at 25 ± 2 °C (A. fumigatus). The diazenyl chalcones (C18–C27), were further evaluated for their bactericidal/fungicidal activity by estimation of MBC/MFC values. […] For proper mixing of culture media, the plates were shaken gently followed by incubation at the predefined temperature and time as stated earlier, followed by the visual inspection of the plates for signs of microbial growth.

S. aureus = experiment: Antimicrobial serial tube dilution, MIC and MBC; assay type: cell-based, Staphylococcus aureus MTCC 2901
Procedure: as §1

S. typhi = experiment: Antimicrobial serial tube dilution, MIC and MBC; assay type: cell-based, Salmonella typhi MTCC 3216; details: for MIC / MBC: Salmonella enterica, TYPHI; for MIC: 24 h, read-out: S. typhi MIC; for MBC: read-out: S. typhi MBC; for S. typhi MIC: 24 h at 37 ± 2 °C
Procedure: as §1

B. cereus = experiment: Antimicrobial serial tube dilution, MIC and MBC; assay type: cell-based, Bacillus cereus MTCC 1305
Procedure: as §1

B. subtilis = experiment: Antimicrobial serial tube dilution, MIC and MBC; assay type: cell-based, Bacillus subtilis MTCC 2063
Procedure: as §1

A. fumigatus = experiment: Antimicrobial serial tube dilution, MIC and MFC; assay type: cell-based, Aspergillus fumigatus MTCC 2584; details: for A. fumigatus MIC: 7 d at 25 ± 2 °C
Procedure: as §1

C. albicans = experiment: Antimicrobial serial tube dilution, MIC and MFC; assay type: cell-based, Candida albicans MTCC 227; details: for C. albicans MIC: 48 h at 37 ± 2 °C
Procedure: as §1

[2] = Escherichia coli, read-out: E. coli MBC
[3] = Escherichia coli; 24 h at 37 ± 2 °C; read-out: E. coli MIC
[4] = Staphylococcus aureus; 24 h at 37 ± 2 °C; read-out: S. aureus MIC
[5] = Staphylococcus aureus; read-out: S. aureus MBC
[6] = Bacillus cereus, 24 h, read-out: B. cereus MIC
[7] = Bacillus cereus; read-out: B. cereus MBC
[8] = Bacillus subtilis, 24 h, read-out: B. subtilis MIC
[9] = Bacillus subtilis, read-out: B. subtilis MBC
[10] = Bacillus subtilis; 24 h at 37 ± 2 °C; read-out: B. subtilis MIC
[11] = Escherichia coli, 24 h, read-out: E. coli MIC, 24 h at 37 ± 2 °C

Row | SMILES | IC50 DPPH [1] [µg/mL] | % inhibition of DPPH ([1]; 1.56 µg ml^−1) [%] | % inhibition of DPPH ([1]; 3.12 µg ml^−1) [%] | % inhibition of DPPH ([1]; 6.25 µg ml^−1) [%] | % inhibition of DPPH ([1]; 12.5 µg ml^−1) [%] | % inhibition of DPPH ([1]; 25 µg ml^−1) [%] | % inhibition of DPPH ([1]; 50 µg ml^−1) [%] | % inhibition of DPPH ([1]; 100 µg ml^−1) [%] | MBC (E. coli; [2]) [µg/mL] | MIC (S. aureus; [4]) [µg/mL] | MBC (S. aureus; [5]) [µg/mL] | MIC (S. typhi) [µg/mL] | MBC (S. typhi) [µg/mL] | MIC (B. cereus; [6]) [µg/mL] | MBC (B. cereus; [7]) [µg/mL] | MBC (B. subtilis; [9]) [µg/mL] | E. coli MIC (E. coli; 24 h at 37 ± 2 °C) [µg/mL] | other results
1 | O=C1O[C@H]([C@@H](O)CO)C(O)=C1O [Ascorbic acid, ascorbic acid, reference compound] | 4.45 (≈ 25.3 µM) | 39.22 | 46.53 | 80.07 | 84.09 | 87.81 | 89.95 | 90.31 | – | – | – | – | – | – | – | – | – | IC50 DPPH ([1]; listed as Ascorbic Acid): 4.451 µg/mL (≈ 25.3 µM)
2 | O=C(O)c1cn(C2CC2)c2cc(N3CCNCC3)c(F)cc2c1=O [CIP, ciprofloxacin, reference compound] | – | – | – | – | – | – | – | – | 7.81 (≈ 23.6 µM) | 1.95 (≈ 5.89 µM) | 3.9 (≈ 11.8 µM) | 7.81 (≈ 23.6 µM) | 7.81 (≈ 23.6 µM) | 7.81 (≈ 23.6 µM) | 15.6 (≈ 47.1 µM) | – | – | MIC (E. coli; [3]): 3.9 µg/mL (≈ 11.8 µM); MIC (B. subtilis; [8]): 7.81 µg/mL (≈ 23.6 µM); MBC (B. subtilis; Bacillus subtilis; read-out: B. subtilis MBC): 15.6 µg/mL (≈ 47.1 µM)
3 | CC1=C(C(=O)O)N2C(=O)[C@@H](NC(=O)[C@H](N)c3ccc(O)cc3)[C@H]2SC1 [Cefadroxil, cefadroxil, reference compound] | – | – | – | – | – | – | – | – | – | 15.6 (≈ 43 µM) | 31.2 (≈ 86 µM) | 125 (≈ 344 µM) | 125 (≈ 344 µM) | – | 31.2 (≈ 86 µM) | 125 (≈ 344 µM) | – | MIC (E. coli; [3]): 31.2 µg/mL (≈ 86 µM); MBC (E. coli; Escherichia coli; read-out: E. coli MBC): 31.2 µg/mL (≈ 86 µM); MIC (B. cereus; Bacillus cereus; 24 h at 37 ± 2 °C; read-out: B. cereus MIC): 31.2 µg/mL (≈ 86 µM); MIC (B. subtilis; [10]): 62.5 µg/mL (≈ 172 µM)
4 | CO/N=C(\C(=O)N[C@@H]1C(=O)N2C(C(=O)O)=C(COC(C)=O)CS[C@H]12)c1csc(N)n1 [Cefotaxime, cefotaxime, reference compound] | – | – | – | – | – | – | – | – | 7.81 (≈ 17.1 µM) | 15.6 (≈ 34.3 µM) | 31.2 (≈ 68.6 µM) | 3.9 (≈ 8.56 µM) | 7.81 (≈ 17.1 µM) | 7.81 (≈ 17.1 µM) | 15.6 (≈ 34.3 µM) | 7.81 (≈ 17.1 µM) | – | MIC (E. coli; [11]): 7.81 µg/mL (≈ 17.1 µM); MIC (B. subtilis; [10]): 1.95 µg/mL (≈ 4.28 µM)
5 | O=C(/C=C/c1ccc(Cl)cc1Cl)c1ccc(O)cc1 [Chalcone, (E)-3-(2,4-dichlorophenyl)-1-(4-hydroxyphenyl)prop-2-en-1-one] | 76.77 (≈ 262 µM) | 6.54 | 8.12 | 10.76 | 16.90 | 21.57 | 34.56 | 51.80 | – | – | – | – | – | – | – | – | 15.62 | E. coli MBC (E. coli): 31.25 µg/mL; A. fumigatus MFC (A. fumigatus): 125 µg/mL; A. fumigatus MIC (A. fumigatus): 125 µg/mL; S. aureus MBC (S. aureus): 62.5 µg/mL; S. aureus MIC (S. aureus; 24 h at 37 ± 2 °C): 31.25 µg/mL; S. typhi MBC (S. typhi): 62.5 µg/mL; S. typhi MIC (S. typhi): 31.25 µg/mL; B. cereus MBC (B. cereus): 62.5 µg/mL; B. cereus MIC (B. cereus; 24 h at 37 ± 2 °C): 62.5 µg/mL; B. subtilis MBC (B. subtilis): 62.5 µg/mL; B. subtilis MIC (B. subtilis; 24 h at 37 ± 2 °C): 62.5 µg/mL; C. albicans MFC (C. albicans): 125 µg/mL; C. albicans MIC (C. albicans): 125 µg/mL
6 | O=C(/C=C/c1ccc(Cl)cc1Cl)c1ccc(O)c(N=Nc2cccc(Cl)c2Cl)c1 [Compound C-18, (2E)-3-(2,4-Dichlorophenyl)-1-(3-((2,3-dichlorophenyl)diazenyl)-4-hydroxyphenyl)prop-2-en-1-one] | > 100 | 7.21 | 8.76 | 9.37 | 12.35 | 15.68 | 21.79 | 31.98 | 62.5 (≈ 134 µM) | – | – | 31.2 (≈ 67 µM) | 125 (≈ 268 µM) | 31.2 (≈ 67 µM) | – | 125 (≈ 268 µM) | 15.62 | MIC (E. coli; [11]): 7.81 to 15.6 µg/mL (≈ 16.8 to 33.5 µM); MIC (A. fumigatus; Aspergillus fumigatus, 168 h, read-out: A. fumigatus MIC): 125 µg/mL (≈ 268 µM); MFC (A. fumigatus; Aspergillus fumigatus, read-out: A. fumigatus MFC): 125 µg/mL (≈ 268 µM); MIC (S. aureus; Staphylococcus aureus, 24 h, read-out: S. aureus MIC): 31.2 µg/mL (≈ 67 µM); MBC (S. aureus; Staphylococcus aureus, read-out: S. aureus MBC): 125 µg/mL (≈ 268 µM); melting point: 110 to 112 °C; MBC (B. cereus; Bacillus cereus, read-out: B. cereus MBC): 125 µg/mL (≈ 268 µM); MIC (B. subtilis; [8]): 125 µg/mL (≈ 268 µM); MIC (C. albicans; Candida albicans, 48 h, read-out: C. albicans MIC): 125 µg/mL (≈ 268 µM); MFC (C. albicans; Candida albicans, read-out: C. albicans MFC): 125 µg/mL (≈ 268 µM)
7 | O=C(/C=C\c1cccc(Br)c1)c1cccc(N=Nc2cc(Cl)ccc2Cl)c1O [Compound C-26, (2Z)-3-(3-Bromophenyl)-1-(3-((2,5-dichlorophenyl)diazenyl)-2-hydroxyphenyl)prop-2-en-1-one] | – | 5.72 | 7.91 | 11.90 | 14.04 | 21.98 | 24.65 | 29.62 | – | – | – | – | – | – | – | – | 62.5 | E. coli MBC (E. coli): 125 µg/mL; A. fumigatus MFC (A. fumigatus): 125 µg/mL; A. fumigatus MIC (A. fumigatus): 125 µg/mL; S. aureus MBC (S. aureus): 31.25 µg/mL; S. aureus MIC (S. aureus; 24 h at 37 ± 2 °C): 7.81 µg/mL; S. typhi MBC (S. typhi): 62.5 µg/mL; S. typhi MIC (S. typhi): 15.62 µg/mL; log IC50 DPPH ([1]; Fig. 1): 1.349; B. cereus MBC (B. cereus): 250 µg/mL; B. cereus MIC (B. cereus; 24 h at 37 ± 2 °C): 250 µg/mL; B. subtilis MBC (B. subtilis): 62.5 µg/mL; B. subtilis MIC (B. subtilis; 24 h at 37 ± 2 °C): 62.5 µg/mL; C. albicans MFC (C. albicans): 125 µg/mL; C. albicans MIC (C. albicans): 125 µg/mL
